Measured values: ChEMBL document CHEMBL6120963, “Discovery of Novel PROTAC SIRT6 Degraders with Potent Efficacy against Hepatocellular Carcinoma” (J Med Chem, 2024)
pIC50: −log10 of the molar value. Calls of active or inactive are those of the source. The rule behind the calls is not given here.

What was measured:
[1] = tested on: SK-HEP1; assay: Effect on SIRT7 expression in human SK-HEP1 cells at 0.002 to 1 uM incubated for 36 hrs by Western blot analysis; assay type: functional, cell-based; conditions: dose 0.002-1 µM
[2] = biological target: T1, Protein cereblon/NAD-dependent protein deacylase sirtuin-6 (Homo sapiens, UniProt Q8N6T7+Q96SW2); assay: PROTAC activity at CRBN/SIRT6 in human SK-HEP1 cells assessed as induction of SIRT6 degradation incubated for 36 hrs by Western blot analysis; assay type: cell-based
Target sequence in this assay (Q8N6T7 whole entry): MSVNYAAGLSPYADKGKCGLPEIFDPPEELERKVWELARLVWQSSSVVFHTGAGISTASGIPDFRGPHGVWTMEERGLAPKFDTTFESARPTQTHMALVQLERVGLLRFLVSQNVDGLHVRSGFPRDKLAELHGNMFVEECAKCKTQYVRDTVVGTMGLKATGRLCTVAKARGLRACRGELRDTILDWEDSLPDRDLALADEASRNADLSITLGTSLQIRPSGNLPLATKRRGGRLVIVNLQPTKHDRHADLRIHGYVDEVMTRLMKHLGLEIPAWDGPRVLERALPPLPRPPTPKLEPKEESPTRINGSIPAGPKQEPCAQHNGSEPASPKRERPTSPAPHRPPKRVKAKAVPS
Target sequence in this assay (Q96SW2 whole entry): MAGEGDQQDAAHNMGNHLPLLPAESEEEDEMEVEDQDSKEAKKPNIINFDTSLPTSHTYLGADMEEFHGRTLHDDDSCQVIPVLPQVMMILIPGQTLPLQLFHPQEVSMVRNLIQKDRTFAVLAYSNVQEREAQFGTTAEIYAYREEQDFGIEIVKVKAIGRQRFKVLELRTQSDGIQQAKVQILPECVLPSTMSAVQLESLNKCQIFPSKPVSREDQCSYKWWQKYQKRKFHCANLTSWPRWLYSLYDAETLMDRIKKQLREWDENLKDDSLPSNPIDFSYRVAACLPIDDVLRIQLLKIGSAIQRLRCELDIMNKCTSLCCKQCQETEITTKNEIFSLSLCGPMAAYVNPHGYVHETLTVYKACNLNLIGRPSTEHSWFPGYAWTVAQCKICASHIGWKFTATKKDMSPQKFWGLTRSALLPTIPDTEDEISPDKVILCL

[3] = Toxicity in BALB/c nude mouse xenografted with human SK-HEP1 cells assessed as histopathological abnormalities in lungs at 10 mg/kg treated for 28 to 30 days by H and E staining based analysis; assay type: organism-based; conditions: in vivo, time 28-30 day
[4] = tested on: SK-HEP1; assay: Downregulation of FBXO44 expression in human SK-HEP1 cells at 2.5 uM incubated for 36 hrs in presence of MLN4924; assay type: functional, cell-based
[5] = Toxicity in BALB/c nude mouse xenografted with human SK-HEP1 cells assessed as histopathological abnormalities in lungs at 10 mg/kg treated for 28 to 30 days in presence of sorafenib by H and E staining based analysis; assay type: organism-based; conditions: in vivo, time 28-30 day
[6] = Toxicity in BALB/c nude mouse xenografted with human SK-HEP1 cells assessed as pathological damage in heart at 10 mg/kg treated for 28 to 30 days under irradiation (3 Gy) by H and E staining based analysis; assay type: organism-based; conditions: in vivo, time 28-30 day
[7] = biological target: T1, Protein cereblon/NAD-dependent protein deacylase sirtuin-6; assay: PROTAC activity at CRBN/SIRT6 in human Huh-7 cells assessed as induction of SIRT6 degradation upto 10 uM incubated for 36 hrs by Western blot analysis relative to control; assay type: cell-based
Target sequence in this assay (Q8N6T7 2-355 limits assumed): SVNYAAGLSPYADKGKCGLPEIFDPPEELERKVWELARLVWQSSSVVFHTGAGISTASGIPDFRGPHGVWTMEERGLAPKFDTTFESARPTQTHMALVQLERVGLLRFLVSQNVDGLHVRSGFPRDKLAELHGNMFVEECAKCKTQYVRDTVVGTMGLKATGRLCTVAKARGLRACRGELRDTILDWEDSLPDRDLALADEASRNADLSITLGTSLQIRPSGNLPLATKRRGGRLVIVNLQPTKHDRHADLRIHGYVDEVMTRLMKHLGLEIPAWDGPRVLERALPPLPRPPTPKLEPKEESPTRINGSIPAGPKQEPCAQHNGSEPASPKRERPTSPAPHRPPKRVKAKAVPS
Target sequence in this assay (Q96SW2 whole entry partner): as the sequence (Q96SW2 whole entry) above

[8] = tested on: SK-HEP1; assay: Downregulation of CCPG1 expression in human SK-HEP1 cells at 2.5 uM incubated for 36 hrs in presence of MG132; assay type: functional, cell-based
[9] = biological target: T1, Protein cereblon/NAD-dependent protein deacylase sirtuin-6; assay: PROTAC activity at CRBN/SIRT6 in human SK-HEP1 cells assessed as disruption of CHD4 recruitment to DSB sites at 2.5 uM incubated for 36 hrs followed by CPT treatment for 4 hrs by Western blot analysis; assay type: cell-based; conditions: time 40.0 hrs
Target sequence in this assay (Q8N6T7 2-355 limits assumed): as the sequence (Q8N6T7 2-355 limits assumed) above
Target sequence in this assay (Q96SW2 whole entry partner): as the sequence (Q96SW2 whole entry) above

[10] = Toxicity in BALB/c nude mouse xenografted with human SK-HEP1 cells assessed as pathological damage in kidney at 10 mg/kg treated for 28 to 30 days by H and E staining based analysis; assay type: organism-based; conditions: in vivo, time 28-30 day
[11] = Toxicity in BALB/c nude mouse xenografted with human SK-HEP1 cells assessed as pathological damage in kidney at 10 mg/kg treated for 28 to 30 days under irradiation (3 Gy) by H and E staining based analysis; assay type: organism-based; conditions: in vivo, time 28-30 day
[12] = tested on: SK-HEP1; assay: Downregulation of NAIF1 expression in human SK-HEP1 cells at 2.5 uM incubated for 36 hrs in presence of MG132; assay type: functional, cell-based
[13] = tested on: SK-HEP1; assay: Induction of apoptosis in human SK-HEP1 cells at 2.5 uM incubated for 72 hrs in presence of sorafenib by Annexin V-FITC/PI staining based flow cytometry; assay type: functional, cell-based
[14] = biological target: T1, Protein cereblon/NAD-dependent protein deacylase sirtuin-6; assay: In vivo PROTAC activity of CRBN/SIRT6 in human SK-HEP1 cells xenografted in BALB/c nude mouse assessed as induction of SIRT6 degradation at 10 mg/kg treated for 28 to 30 days; assay type: functional, organism-based; conditions: time 28-30 day
Target sequence in this assay (Q8N6T7 2-355 limits assumed): as the sequence (Q8N6T7 2-355 limits assumed) above
Target sequence in this assay (Q96SW2 whole entry partner): as the sequence (Q96SW2 whole entry) above

[15] = Toxicity in BALB/c nude mouse xenografted with human SK-HEP1 cells assessed as pathological damage in spleen at 10 mg/kg treated for 28 to 30 days by H and E staining based analysis; assay type: organism-based; conditions: in vivo, time 28-30 day
[16] = Toxicity in BALB/c nude mouse xenografted with human SK-HEP1 cells assessed as pathological damage in liver at 10 mg/kg treated for 28 to 30 days under irradiation (3 Gy) by H and E staining based analysis; assay type: organism-based; conditions: in vivo, time 28-30 day
[17] = biological target: T1, Protein cereblon/NAD-dependent protein deacylase sirtuin-6; assay: PROTAC activity at CRBN/SIRT6 in human SK-HEP1 cells assessed as hook effect upto 5 uM incubated for 36 hrs by Western blot analysis; assay type: cell-based
Target sequence in this assay (Q8N6T7 2-355 limits assumed): as the sequence (Q8N6T7 2-355 limits assumed) above
Target sequence in this assay (Q96SW2 whole entry partner): as the sequence (Q96SW2 whole entry) above

[18] = tested on: SK-HEP1; assay: Effect of SIRT1 mRNA expression in human SK-HEP1 cells at 2.5 uM incubated for 36 hrs by RT-qPCR analysis; assay type: functional, cell-based
[19] = biological target: T1, Protein cereblon/NAD-dependent protein deacylase sirtuin-6; assay: PROTAC activity at CRBN/SIRT6 in human SK-HEP1 cells assessed as induction of SIRT6 degradation at 1 uM incubated for 24 to 36 hrs by Western blot analysis; assay type: cell-based; conditions: time 24-36 hrs
Target sequence in this assay (Q8N6T7 2-355 limits assumed): as the sequence (Q8N6T7 2-355 limits assumed) above
Target sequence in this assay (Q96SW2 whole entry partner): as the sequence (Q96SW2 whole entry) above

[20] = tested on: SK-HEP1; assay: Effect of TFRC mRNA expression in human SK-HEP1 cells at 2.5 uM incubated for 36 hrs by RNA sequencing analysis; assay type: functional, cell-based
[21] = tested on: SK-HEP1; assay: Effect of SIRT7 mRNA expression in human SK-HEP1 cells at 2.5 uM incubated for 36 hrs by RT-qPCR analysis; assay type: functional, cell-based
[22] = biological target: T1, Protein cereblon/NAD-dependent protein deacylase sirtuin-6; assay: PROTAC activity at CRBN/SIRT6 in human SK-HEP1 cells assessed as induction of SIRT6 degradation at 2.5 uM incubated for 36 hrs by proteomic analysis; assay type: cell-based
Target sequence in this assay (Q8N6T7 2-355 limits assumed): as the sequence (Q8N6T7 2-355 limits assumed) above
Target sequence in this assay (Q96SW2 whole entry partner): as the sequence (Q96SW2 whole entry) above

[23] = tested on: SK-HEP1; assay: Downregulation of ALDOB expression in human SK-HEP1 cells at 2.5 uM incubated for 36 hrs; assay type: functional, cell-based
[24] = tested on: SK-HEP1; assay: Effect of FN1 mRNA expression in human SK-HEP1 cells at 2.5 uM incubated for 36 hrs by RNA sequencing analysis; assay type: functional, cell-based
[25] = biological target: T1, Protein cereblon/NAD-dependent protein deacylase sirtuin-6; assay: PROTAC activity at CRBN/SIRT6 in human SK-HEP1 cells assessed as induction of SIRT6 degradation upto 10 uM incubated for 36 hrs by Western blot analysis relative to control; assay type: cell-based
[26] = biological target: T1, Protein cereblon/NAD-dependent protein deacylase sirtuin-6; assay: PROTAC activity at CRBN/SIRT6 in human SK-HEP1 cells assessed as disruption of CHD4 recruitment to DSB sites at 2.5 uM incubated for 36 hrs followed by sorafenib treatment for 4 hrs by Western blot analysis; assay type: cell-based; conditions: time 40.0 hrs
[27] = tested on: SK-HEP1; assay: Cytotoxicity against human SK-HEP1 cells combined with irradiation (3 Gy) incubated for 72 hrs by CCK8 assay; assay type: functional, cell-based; conditions: SK-HEP1, light or radiation study
[28] = Toxicity in BALB/c nude mouse xenografted with human SK-HEP1 cells assessed as pathological damage in kidney at 10 mg/kg treated for 28 to 30 days in presence of sorafenib by H and E staining based analysis; assay type: organism-based; conditions: in vivo, time 28-30 day
[29] = tested on: SK-HEP1; assay: Antitumor activity against human SK-HEP1 cells xenografted in BALB/c nude mouse at 10 mg/kg treated for 28 to 30 days under irradiation (3 Gy) (reference value: 38.4 %); assay type: functional; conditions: time 28-30 day
[30] = tested on: SK-HEP1; assay: Effect of genes related to ubiquitin-mediated proteolysis in human SK-HEP1 cells at 2.5 uM incubated for 36 hrs by GSEA analysis; assay type: functional, cell-based
[31] = tested on: SK-HEP1; assay: Effect of H2BC21 mRNA expression in human SK-HEP1 cells at 2.5 uM incubated for 36 hrs by RNA sequencing analysis; assay type: functional, cell-based
[32] = tested on: SK-HEP1; assay: Antitumor activity against human SK-HEP1 cells xenografted in BALB/c nude mouse assessed as tumor growth suppression at 10 mg/kg treated for 28 to 30 days; assay type: functional, organism-based; conditions: time 28-30 day
[33] = Toxicity in BALB/c nude mouse xenografted with human SK-HEP1 cells assessed as histopathological abnormalities in lungs at 10 mg/kg treated for 28 to 30 days under irradiation (3 Gy) by H and E staining based analysis; assay type: organism-based; conditions: in vivo, time 28-30 day
[34] = Toxicity in BALB/c nude mouse xenografted with human SK-HEP1 cells assessed as pathological damage in spleen at 10 mg/kg treated for 28 to 30 days under irradiation (3 Gy) by H and E staining based analysis; assay type: organism-based; conditions: in vivo, time 28-30 day

For Nc1cc(N2CCN(CC3CCN(c4cc5c(cc4F)C(=O)N(C4CCC(=O)NC4=O)C5=O)CC3)CC2)ccc1[N+](=O)[O-] (centres undefined), the Activity [1] was “No effect”, the DC50 [2] was 45.3 nM and the Activity [3] was “Non-toxic”. For the same compound, the Activity [4] was “inactive”, the Activity [5] was “Non-toxic” and the Activity [6] was “Non-toxic”. For the same compound, the Emax [7] was 91.8%, the Activity [8] was “inactive” and the Activity [9] was “Active”. The Activity [10] was “Non-toxic”, the Activity [11] was “Non-toxic” and the Activity [12] was “inactive”. For the same compound, the Activity [13] was “Active”, the Activity [14] was “Active” and the Activity [15] was “Non-toxic”. For the same compound, the Activity [16] was “Non-toxic”, the Activity [17] was “inactive” and the Activity [18] was “No effect”. The Activity [19] was “Active; Reached A Plateau After 36 Hrs Of Treatment, But A Dramatic Reduction Observed”, the Activity [20] was “Active” and the Activity [21] was “No effect”. For the same compound, the Activity [22] was “Active”, the Activity [23] was “Active” and the Activity [24] was “Active”. For the same compound, the Emax [25] was over 98%, the Activity [26] was “Active” and the pIC50 [27] was about 6.35. For the same compound, the Activity [28] was “Non-toxic”, the T/C [29] was 26.1% and the Activity [30] was “Active”. For the same compound, the Activity [31] was “Active”, the Activity [32] was “Active” and the Activity [33] was “Non-toxic”. For the same compound, the Activity [34] was “Non-toxic”.
